ChEMBL document CHEMBL1201862, “PubChem BioAssay data set” (2004)
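How tested: cells in 96-well plates exposed to compound for 48 hours at five concentrations. GI50 marks 50% less growth.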 Activity calls are given as the source filed them. Rule as the data show it: active = GI50 up to about 1.1 µM and inactive = higher.

Experiments:
Experiment in all cases: NCI anticancer screen, dose series, 48 h
ACHN = tested on: ACHN
UACC-62 = tested on: UACC-62
HT-29 = tested on: HT-29
SF-268 = tested on: SF-268
SK-OV-3 = tested on: SK-OV-3
SW-620 = tested on: SW-620
SK-MEL-28 = tested on: SK-MEL-28
OVCAR-8 = tested on: OVCAR-8
LOX IMVI = tested on: LOX IMVI
NCI-H460 = tested on: NCI-H460
RXF 631 = tested on: RXF 631
OVCAR-3 = tested on: OVCAR-3
U-251 = tested on: U-251
Malme-3M = tested on: Malme-3M
HCT-15 = tested on: HCT-15
LXFL 529 = tested on: LXFL 529
OVCAR-4 = tested on: OVCAR-4
HL-60 = tested on: HL-60
DMS-114 = tested on: DMS-114
A549 = tested on: A549
IGROV-1 = tested on: IGROV-1
RPMI-8226 = tested on: RPMI-8226
EKVX = tested on: EKVX
HCT-116 = tested on: HCT-116
M14 = tested on: M14
XF498 = tested on: XF498
SK-MEL-2 = tested on: SK-MEL-2
K562 = tested on: K562
CCRF-CEM = tested on: CCRF-CEM
KM12 = tested on: KM12
A498 = tested on: A498
UACC-257 = tested on: UACC-257
TK-10 = tested on: TK-10
SF-295 = tested on: SF-295
NCI-H23 = tested on: NCI-H23
UO-31 = tested on: UO-31
DMS-273 = tested on: DMS-273
HCC 2998 = tested on: HCC 2998
SK-MEL-5 = tested on: SK-MEL-5
KM-20L2 = tested on: KM-20L2
DLD-1 = tested on: DLD-1
COLO 205 = tested on: COLO 205
SNB-19 = tested on: SNB-19
SF-539 = tested on: SF-539
RXF 393 = tested on: RXF 393
M19-MEL = tested on: M19-MEL
HOP-18 = tested on: HOP-18
SN12C = tested on: SN12C
CAKI-1 = tested on: CAKI-1
SNB-78 = tested on: SNB-78
OVCAR-5 = tested on: OVCAR-5
SNB-75 = tested on: SNB-75
786-0 = tested on: 786-0
NCI-H226 = tested on: NCI-H226
MOLT-4 = tested on: MOLT-4
HOP-92 = tested on: HOP-92
HOP-62 = tested on: HOP-62
NCI-H522 = tested on: NCI-H522
SR = tested on: SR

Measured: GI50

Cc1cccc(C)c1NC(=O)CCC/C(CC(=O)c1ccc(F)cc1)=N\NC(=O)C(=O)NN
inactive: ACHN > 100 µM | UACC-62 > 100 µM | HT-29 > 100 µM | SF-268 > 100 µM | SK-OV-3 > 100 µM | SW-620 > 100 µM | SK-MEL-28 > 100 µM | OVCAR-8 > 100 µM | LOX IMVI > 100 µM | NCI-H460 > 100 µM | RXF 631 > 100 µM | OVCAR-3 > 100 µM | U-251 > 100 µM | Malme-3M > 100 µM | LXFL 529 > 100 µM | OVCAR-4 > 100 µM | HL-60 > 100 µM | DMS-114 > 100 µM | A549 > 100 µM | IGROV-1 > 100 µM | RPMI-8226 > 100 µM | EKVX > 100 µM | HCT-116 > 100 µM | M14 > 100 µM | XF498 > 100 µM | SK-MEL-2 > 100 µM | K562 > 100 µM | CCRF-CEM > 100 µM | KM12 > 100 µM | A498 > 100 µM | UACC-257 > 100 µM | TK-10 > 100 µM | SF-295 > 100 µM | NCI-H23 > 100 µM | UO-31 > 100 µM | DMS-273 > 100 µM | HCC 2998 > 100 µM | SK-MEL-5 > 100 µM | KM-20L2 > 100 µM | DLD-1 > 100 µM | COLO 205 > 100 µM | SNB-19 > 100 µM | SF-539 > 100 µM | RXF 393 21.9 µM | M19-MEL > 100 µM | HOP-18 > 100 µM | SN12C > 100 µM | CAKI-1 > 100 µM | SNB-78 > 100 µM | OVCAR-5 > 100 µM | SNB-75 > 100 µM | 786-0 > 100 µM | NCI-H226 > 100 µM | MOLT-4 > 100 µM
> 100 µM: HCT-15

CCOC(=O)C1(C)CCC(C(C(=O)O)C(=O)O)CC1=O (stereo not given)
> 100 µM: HCT-15
inactive: ACHN > 100 µM | UACC-62 > 100 µM | HT-29 > 100 µM | SF-268 > 100 µM | SK-OV-3 > 100 µM | SW-620 > 100 µM | SK-MEL-28 > 100 µM | OVCAR-8 > 100 µM | LOX IMVI > 100 µM | NCI-H460 > 100 µM | RXF 631 > 100 µM | OVCAR-3 > 100 µM | U-251 > 100 µM | Malme-3M > 100 µM | LXFL 529 > 100 µM | OVCAR-4 > 100 µM | HL-60 > 100 µM | DMS-114 > 100 µM | A549 > 100 µM | IGROV-1 > 100 µM | RPMI-8226 > 100 µM | EKVX > 100 µM | HCT-116 > 100 µM | M14 > 100 µM | HOP-92 > 100 µM | CCRF-CEM > 100 µM | KM12 > 100 µM | A498 > 100 µM | UACC-257 > 100 µM | HOP-62 > 100 µM | TK-10 > 100 µM | SF-295 > 100 µM | NCI-H522 > 100 µM | UO-31 > 100 µM | SR > 100 µM | DMS-273 > 100 µM | HCC 2998 > 100 µM | SK-MEL-5 > 100 µM | KM-20L2 > 100 µM | DLD-1 > 100 µM | COLO 205 > 100 µM | SNB-19 > 100 µM | SF-539 > 100 µM | RXF 393 > 100 µM | M19-MEL > 100 µM | HOP-18 > 100 µM | SN12C > 100 µM | CAKI-1 > 100 µM | SNB-78 > 100 µM | OVCAR-5 > 100 µM | SNB-75 > 100 µM | 786-0 > 100 µM | NCI-H226 > 100 µM | MOLT-4 > 100 µM
